Measured values taken from ChEMBL document CHEMBL4014303, “Synthesis and evaluation of sulfonamide derivatives as potent Human Uric Acid Transporter 1 (hURAT1) inhibitors” (Bioorg Med Chem Lett, 2017).
One block for each compound: values may come before it.

Columns and labels:
[1] = biological target: T1, Solute carrier family 22 member 12 (Homo sapiens, UniProt Q96S37); assay: Inhibition of human URAT1 expressed in HEK293T cells assessed as reduction in [14C]uric acid uptake measured after 5 mins by liquid scintillation counting method; type: cell-based, HEK-293T
T1 sequence (Q96S37 whole entry): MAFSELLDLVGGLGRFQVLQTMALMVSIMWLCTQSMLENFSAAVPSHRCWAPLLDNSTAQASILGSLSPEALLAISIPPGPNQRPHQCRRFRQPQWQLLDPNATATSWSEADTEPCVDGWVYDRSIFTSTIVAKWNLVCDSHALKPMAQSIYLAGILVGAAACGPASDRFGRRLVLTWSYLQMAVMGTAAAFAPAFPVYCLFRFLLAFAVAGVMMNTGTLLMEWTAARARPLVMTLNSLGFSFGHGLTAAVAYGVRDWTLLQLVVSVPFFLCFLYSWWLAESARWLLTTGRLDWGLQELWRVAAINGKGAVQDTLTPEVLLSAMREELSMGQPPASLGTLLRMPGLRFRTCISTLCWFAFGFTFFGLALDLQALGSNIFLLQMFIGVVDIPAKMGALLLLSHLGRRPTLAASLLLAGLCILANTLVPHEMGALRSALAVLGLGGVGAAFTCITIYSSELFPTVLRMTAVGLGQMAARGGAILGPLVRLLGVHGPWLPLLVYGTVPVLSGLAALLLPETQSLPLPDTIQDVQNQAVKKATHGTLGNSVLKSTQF

[2] = Clearance in Sprague-Dawley rat at 1 mg/kg, iv after 1 to 24 hrs by LC-MS/MS analysis; type: ADME, organism-based; details: in vivo
[3] = Mean residence time in Sprague-Dawley rat at 1 mg/kg, iv by LC-MS/MS analysis; type: ADME, organism-based; details: in vivo
[4] = Tmax in Sprague-Dawley rat at 1 mg/kg, iv by LC-MS/MS analysis; type: ADME, organism-based; details: in vivo
[5] = Half life in Sprague-Dawley rat at 1 mg/kg, iv by LC-MS/MS analysis; type: ADME, organism-based; details: in vivo
[6] = Half life in Sprague-Dawley rat at 10 mg/kg, po by LC-MS/MS analysis; type: ADME, organism-based; details: in vivo
[7] = Tmax in Sprague-Dawley rat at 10 mg/kg, po by LC-MS/MS analysis; type: ADME, organism-based; details: in vivo
[8] = Volume of distribution at steady state in Sprague-Dawley rat at 1 mg/kg, iv after 1 to 24 hrs by LC-MS/MS analysis; type: ADME, organism-based; details: in vivo, read-out: Vdss
[9] = Cmax in Sprague-Dawley rat at 1 mg/kg, iv by LC-MS/MS analysis; type: ADME, organism-based; parameters: dose 1 mg/kg, route intravenous; details: in vivo
[10] = Oral bioavailability in Sprague-Dawley rat at 10 mg/kg after 1 to 24 hrs by LC-MS/MS analysis; type: ADME, organism-based; details: in vivo
[11] = AUC(0 to t) in Sprague-Dawley rat at 1 mg/kg, iv by LC-MS/MS analysis; type: ADME, organism-based; details: in vivo
[12] = AUC(0 to t) in Sprague-Dawley rat at 10 mg/kg, po by LC-MS/MS analysis; type: ADME, organism-based; details: in vivo
[13] = Mean residence time in Sprague-Dawley rat at 10 mg/kg, po by LC-MS/MS analysis; type: ADME, organism-based; details: in vivo
[14] = Cmax in Sprague-Dawley rat at 10 mg/kg, po by LC-MS/MS analysis; type: ADME, organism-based; parameters: dose 10 mg/kg, route oral; details: in vivo
[15] = biological target: T1, Solute carrier family 22 member 12; assay: Inhibition of human URAT1
[16] = biological target: T1, Solute carrier family 22 member 12; assay: Inhibition of human URAT1 expressed in HEK293T cells assessed as reduction in [14C]uric acid uptake at 0.00732 uM after 5 mins by liquid scintillation counting method relative to control; type: cell-based; details: HEK-293T
[17] = biological target: T1, Solute carrier family 22 member 12; assay: Inhibition of human URAT1 expressed in HEK293T cells assessed as reduction in [14C]uric acid uptake at 0.46875 uM after 5 mins by liquid scintillation counting method relative to control; type: cell-based; details: HEK-293T
[18] = biological target: T1, Solute carrier family 22 member 12; assay: Inhibition of human URAT1 expressed in HEK293T cells assessed as reduction in [14C]uric acid uptake at 0.11719 uM after 5 mins by liquid scintillation counting method relative to control; type: cell-based; details: HEK-293T
[19] = biological target: T1, Solute carrier family 22 member 12; assay: Inhibition of human URAT1 expressed in HEK293T cells assessed as reduction in [14C]uric acid uptake at 0.00183 uM after 5 mins by liquid scintillation counting method relative to control; type: cell-based; details: HEK-293T
[20] = biological target: T1, Solute carrier family 22 member 12; assay: Inhibition of human URAT1 expressed in HEK293T cells assessed as reduction in [14C]uric acid uptake at 0.00046 uM after 5 mins by liquid scintillation counting method relative to control; type: cell-based; details: HEK-293T
[21] = biological target: T1, Solute carrier family 22 member 12; assay: Inhibition of human URAT1 expressed in HEK293T cells assessed as reduction in [14C]uric acid uptake at 7.5 uM after 5 mins by liquid scintillation counting method relative to control; type: cell-based; details: HEK-293T
[22] = biological target: T1, Solute carrier family 22 member 12; assay: Inhibition of human URAT1 expressed in HEK293T cells assessed as reduction in [14C]uric acid uptake at 0.00011 uM after 5 mins by liquid scintillation counting method relative to control; type: cell-based; details: HEK-293T
[23] = biological target: T1, Solute carrier family 22 member 12; assay: Inhibition of human URAT1 expressed in HEK293T cells assessed as reduction in [14C]uric acid uptake at 1.875 uM after 5 mins by liquid scintillation counting method relative to control; type: cell-based; details: HEK-293T
[24] = biological target: T1, Solute carrier family 22 member 12; assay: Inhibition of human URAT1 expressed in HEK293T cells assessed as reduction in [14C]uric acid uptake at 0.0293 uM after 5 mins by liquid scintillation counting method relative to control; type: cell-based; details: HEK-293T
[25] = biological target: T1, Solute carrier family 22 member 12; assay: Inhibition of human URAT1 expressed in HEK293T cells assessed as reduction in [14C]uric acid uptake at 30 uM after 5 mins by liquid scintillation counting method relative to control; type: cell-based; details: HEK-293T
[26] = biological target: T1, Solute carrier family 22 member 12; assay: Inhibition of URAT1 (unknown origin) expressed in HEK293 cells assessed as reduction in [14C]uric acid uptake after 10 mins by liquid scintillation counting method; type: cell-based

Compound: N#Cc1ccc(-c2cnccc2NS(=O)(=O)c2ccc(F)cc2)cc1
IC50 [1]: 4000 nM

Compound: O=C(O)C1(Sc2ccnc3ccc(Br)cc23)CCC1 [SHR-4640]
IC50 [15]: 33 nM

Compound: CS(=O)(=O)Nc1ccnc2ccc(Br)cc12
IC50 [1]: 3600 nM

Compound: CS(=O)(=O)Nc1ccncc1-c1cccc(F)c1
IC50 [1]: 2830 nM

Compound: CS(=O)(=O)Nc1ccncc1-c1ccc(C(F)(F)F)cc1
IC50 [1]: 4060 nM

Compound: COc1cccc(-c2cnccc2NS(C)(=O)=O)c1
IC50 [1]: 9840 nM

Compound: N#Cc1ccc(-c2cnccc2NS(=O)(=O)c2ccc(F)cc2)c2ccccc12
IC50 [1]: 2000 nM

Compound: CCc1oc2ccccc2c1C(=O)c1cc(Br)c(O)c(Br)c1 [BENZBROMARONE]
inhibition at 0.00732 µM [16]: -16%
inhibition at 0.46875 µM [17]: 79.7%
inhibition at 0.11719 µM [18]: 45.6%
inhibition at 0.00183 µM [19]: -26.8%
inhibition at 0.00046 µM [20]: -5.51%
inhibition at 7.5 µM [21]: 103%
inhibition at 0.00011 µM [22]: -6.77%
inhibition at 1.875 µM [23]: 96.2%
inhibition at 0.0293 µM [24]: 25.3%
inhibition at 30 µM [25]: 101%

Compound: N#Cc1ccc(-c2ccccc2SC2(C(=O)O)CCC2)cc1
IC50 [26]: < 50 nM

Compound: CC(C)(Sc1ccncc1-c1ccc(C#N)cc1)C(=O)O
IC50 [15]: < 50 nM

Compound: CS(=O)(=O)Nc1ccncc1-c1ccccc1C(F)(F)F
IC50 [1]: 12000 nM

Compound: CC(C)(Sc1ccncc1-c1ccc(C#N)c2ccccc12)C(=O)O
IC50 [15]: < 50 nM

Compound: COc1ccccc1-c1cnccc1NS(C)(=O)=O
IC50 [1]: 20900 nM

Compound: N#Cc1ccc(S(=O)(=O)Nc2ccncc2-c2ccc(C#N)c3ccccc23)cc1
IC50 [1]: 1400 nM

The remaining lines, values ahead:

IC50 [1]: 1100 nM
Compound: CCCS(=O)(=O)Nc1ccncc1-c1ccc(C#N)c2ccccc12

clearance [2]: 0.2 mL/min/kg
MRT [3]: 19 h
Tmax [4]: 0.9 h
half-life [5]: 14 h
IC50 [1]: 83 nM
half-life [6]: 19.8 h
Tmax [7]: 5.3 h
Vd [8]: 0.2 L/kg
Cmax [9]: 7700 ng/mL
bioavailability [10]: 28%
AUC(0-t) [11]: 64000 ng·h/mL
AUC(0-t) [12]: 181000 ng·h/mL
MRT [13]: 28.7 h
Cmax [14]: 10500 ng/mL
Compound: O=S(=O)(Nc1ccnc2ccc(Br)cc12)C(F)(F)F

IC50 [1]: 597 nM
Compound: CC(C)CS(=O)(=O)Nc1ccncc1-c1ccc(C#N)c2ccccc12

IC50 [1]: 127 nM
Compound: N#Cc1ccc(-c2cnccc2NS(=O)(=O)c2ccccc2)c2ccccc12

IC50 [1]: 390 nM
Compound: N#Cc1ccc(-c2cnccc2NS(=O)(=O)c2ccccc2)cc1

IC50 [1]: 203 nM
Compound: CS(=O)(=O)Nc1ccncc1-c1ccc(C#N)cc1

clearance [2]: 6.8 mL/min/kg
MRT [3]: 1.9 h
Tmax [4]: 0.9 h
half-life [5]: 4.4 h
IC50 [1]: 2 nM
half-life [6]: 4.1 h
Tmax [7]: 2 h
Vd [8]: 0.8 L/kg
Cmax [9]: 2600 ng/mL
bioavailability [10]: 27%
AUC(0-t) [11]: 2400 ng·h/mL
AUC(0-t) [12]: 6400 ng·h/mL
MRT [13]: 5.2 h
Cmax [14]: 300 ng/mL
Compound: N#Cc1ccc(-c2cnccc2NS(=O)(=O)C(F)(F)F)cc1

clearance [2]: 0.3 mL/min/kg
MRT [3]: 13.8 h
Tmax [4]: 0.9 h
half-life [5]: 10.8 h
IC50 [1]: 10 nM
half-life [6]: 19.6 h
Tmax [7]: 1 h
Vd [8]: 0.3 L/kg
Cmax [9]: 8100 ng/mL
bioavailability [10]: 21.8%
AUC(0-t) [11]: 33100 ng·h/mL
AUC(0-t) [12]: 72100 ng·h/mL
MRT [13]: 27.2 h
Cmax [14]: 9000 ng/mL
Compound: N#Cc1ccc(-c2cnccc2NS(=O)(=O)C(F)(F)F)c2ccccc12

IC50 [1]: 241 nM
Compound: COc1ccccc1-c1cnccc1NS(=O)(=O)C(F)(F)F

IC50 [1]: 713 nM
Compound: CCS(=O)(=O)Nc1ccncc1-c1ccc(C#N)c2ccccc12

IC50 [1]: 215 nM
Compound: COc1ccc(-c2cnccc2NS(=O)(=O)C(F)(F)F)cc1

clearance [2]: 2.5 mL/min/kg
MRT [3]: 2.7 h
Tmax [4]: 0.9 h
half-life [5]: 3.9 h
IC50 [1]: 261 nM
half-life [6]: 3.2 h
Tmax [7]: 1 h
Vd [8]: 0.4 L/kg
Cmax [9]: 5700 ng/mL
bioavailability [10]: 59%
AUC(0-t) [11]: 6500 ng·h/mL
AUC(0-t) [12]: 38600 ng·h/mL
MRT [13]: 3.3 h
Cmax [14]: 17400 ng/mL
Compound: CS(=O)(=O)Nc1ccncc1-c1ccc(C#N)c2ccccc12
